Residue numbers refer to the chain shown, from its start. Like-named read-outs stand apart in the source and are kept apart here.
Key:
Y5.38F 5-HT1B receptor = molecular target: T1, Y5.38F 5-HT1B receptor (Homo sapiens, UniProt P28222, Y208F); assay: Radioligand binding, Y5.38F 5-HT1B; conditions: read-out: pKi 5-HT1B Receptor Y5.38F (converted)
T1 construct: host or cells: HEK293T

V45.52I 5-HT1B receptor = V45.52I 5-HT1B receptor (Homo sapiens, UniProt P28222, V201I); assay: Radioligand binding, V45.52I 5-HT1B
Description: 48 hours after transfection with the desired receptor construct, cells were isolated for saturation and competition binding assays as previously described.[47],[48],[57] Saturation and competition radioligand binding assays were conducted in an assay buffer consisting of 50 mM Tris HCl, 10 mM MgCl2, and 0.1 mM EDTA in filtered deionized water. […] Briefly, 5–10 μg of the receptor protein, as determined by a Thermo Fisher Pierce BCA protein assay kit, was incubated with 8 concentrations of radioligand in triplicate to determine total binding. […] Nonspecific binding was determined as above for saturation assays.
For radioligand binding data, nonspecific binding was subtracted from the total binding to get specific binding. Saturation binding data was fit to the “binding saturation-specific binding with hill slope” model. Competition binding data were fit to the “binding competition-one-site fit Ki” non-linear regression model and transformed to pKi values, reported as mean ± SD.
is 50 mM Tris HCl, 10 mM MgCl2 and 0.1 mM EDTA in filtered deionized water.

S5.42A 5-HT1D receptor = S5.42A 5-HT1D receptor (Homo sapiens, UniProt P28221, S201A); assay: cAMP accumulation in HEK293T cells, S5.42A 5-HT1D; assay type: cell-based; set-up: host or cells: HEK293T; conditions: point-mutated receptor, 3 independent experiments, read-out: pEC50 5-HT1D Receptor S5.42A (converted)
Description: (§1) Briefly, cells transfected with the desired receptor construct and compounds were incubated in the dark for 90 min at 37 °C. After incubation, cAMP detection reagents were added, and TR-FRET was used to quantify the cAMP produced.
(§2) The functional activity of compounds was determined by stimulating cells expressing the desired receptor with FSK and test compound in parallel with 12 known concentrations of cAMP. The known concentrations of cAMP were used to create a standard curve for each experiment that was used to interpolate the unknown values of cAMP in wells with test compounds. […] The EC50 and EMAX values were determined using the “dose response – log[agonist] vs response (three parameter)” nonlinear regression model in Prism and transformed to pEC50 values, reported as mean ± SD.
(§3) Summary of functional assay conditions at various 5-HT1 receptor point mutation constructs.

human 5-HT1D receptor = molecular target: T2, human 5-HT1D receptor (Homo sapiens, UniProt P28221); assay: Radioligand binding (saturation and competition), WT 5-HT1D; conditions: for higher affinity at 5-HT1D over 5-HT1A receptors: affinity ratio
T2 construct: host or cells: HEK293T

human 5-HT1F receptor = molecular target: T3, human 5-HT1F receptor (Homo sapiens, UniProt P30939); assay: Radioligand binding (saturation and competition), WT 5-HT1F
T3 construct: host or cells: HEK293T
T3 sequence (P30939 1-366): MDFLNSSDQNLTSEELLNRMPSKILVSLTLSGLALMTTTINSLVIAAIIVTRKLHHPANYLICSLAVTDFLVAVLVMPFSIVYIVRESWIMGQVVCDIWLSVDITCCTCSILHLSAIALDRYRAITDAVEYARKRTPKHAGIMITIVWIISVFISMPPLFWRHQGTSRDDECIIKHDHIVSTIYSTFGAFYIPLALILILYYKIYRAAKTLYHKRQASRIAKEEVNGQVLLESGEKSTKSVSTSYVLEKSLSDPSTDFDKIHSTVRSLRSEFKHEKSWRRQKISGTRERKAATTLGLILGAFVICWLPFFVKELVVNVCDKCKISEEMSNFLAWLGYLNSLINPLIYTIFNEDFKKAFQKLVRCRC

V3.33I 5-HT1A receptor = molecular target: T4, V3.33I 5-HT1A receptor (Homo sapiens, UniProt P08908, V117I); assay: cAMP accumulation in HEK293T cells, V3.33I 5-HT1A; assay type: cell-based; set-up: mutated in house (Quikchange II) HTR01A0000; host or cells: HEK293T; conditions: point-mutated receptor, 3 independent experiments, read-out: pEC50 5-HT1A Receptor V3.33I (converted)
T4 sequence (P08908 1-422 V117I): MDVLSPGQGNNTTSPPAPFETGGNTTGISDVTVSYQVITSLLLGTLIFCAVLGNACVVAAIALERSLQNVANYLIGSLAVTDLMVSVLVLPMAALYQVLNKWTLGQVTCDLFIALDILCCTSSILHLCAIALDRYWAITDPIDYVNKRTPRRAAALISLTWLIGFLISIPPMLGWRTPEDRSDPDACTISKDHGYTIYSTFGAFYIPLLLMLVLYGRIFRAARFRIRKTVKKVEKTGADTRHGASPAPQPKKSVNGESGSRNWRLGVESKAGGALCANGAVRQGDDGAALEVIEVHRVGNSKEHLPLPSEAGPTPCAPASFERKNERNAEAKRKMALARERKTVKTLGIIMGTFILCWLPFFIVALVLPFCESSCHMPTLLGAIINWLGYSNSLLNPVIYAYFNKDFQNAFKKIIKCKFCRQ
Description: as §1, §2, §3

N7.39T 5-HT1A receptor = molecular target: T5, N7.39T 5-HT1A receptor (Homo sapiens, UniProt P08908, N386T); assay: cAMP accumulation in HEK293T cells, N7.39T 5-HT1A; assay type: cell-based; set-up: mutated in house (Quikchange II) HTR01A0000; host or cells: HEK293T; conditions: point-mutated receptor, 3 independent experiments, read-out: pEC50 5-HT1A Receptor N7.39T (converted)
T5 sequence (P08908 1-422 N386T): T4 sequence (P08908 1-422 V117I) with I117V, N386T
Description: as §1, §2, §3

Y5.38A 5-HT1A receptor = molecular target: T6, Y5.38A 5-HT1A receptor (Homo sapiens, UniProt P08908, Y195A); assay: cAMP accumulation in HEK293T cells, Y5.38A 5-HT1A; assay type: cell-based; set-up: mutated in house (Quikchange II) HTR01A0000; host or cells: HEK293T; conditions: point-mutated receptor, 3 independent experiments, read-out: pEC50 5-HT1A Receptor Y5.38A (converted)
T6 sequence (P08908 1-422 Y195A): T4 sequence (P08908 1-422 V117I) with I117V, Y195A
Description: as §1, §2, §3

[1] = Affinity (pKi ± SD) 5-HT1D, WT receptor, [^3H]5-CT competition, mean ± SD

T1 sequence (P28222 whole entry Y208F): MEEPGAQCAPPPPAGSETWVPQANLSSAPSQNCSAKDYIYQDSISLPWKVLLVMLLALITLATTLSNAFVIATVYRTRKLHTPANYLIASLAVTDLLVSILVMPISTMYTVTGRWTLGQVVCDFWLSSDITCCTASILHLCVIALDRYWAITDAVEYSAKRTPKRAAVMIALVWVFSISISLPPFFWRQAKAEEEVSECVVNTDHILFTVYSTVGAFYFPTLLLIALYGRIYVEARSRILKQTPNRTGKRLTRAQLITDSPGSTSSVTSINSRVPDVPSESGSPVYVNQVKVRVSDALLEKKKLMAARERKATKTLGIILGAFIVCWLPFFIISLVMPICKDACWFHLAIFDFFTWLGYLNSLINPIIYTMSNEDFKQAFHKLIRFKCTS
T2 sequence (P28221 whole entry): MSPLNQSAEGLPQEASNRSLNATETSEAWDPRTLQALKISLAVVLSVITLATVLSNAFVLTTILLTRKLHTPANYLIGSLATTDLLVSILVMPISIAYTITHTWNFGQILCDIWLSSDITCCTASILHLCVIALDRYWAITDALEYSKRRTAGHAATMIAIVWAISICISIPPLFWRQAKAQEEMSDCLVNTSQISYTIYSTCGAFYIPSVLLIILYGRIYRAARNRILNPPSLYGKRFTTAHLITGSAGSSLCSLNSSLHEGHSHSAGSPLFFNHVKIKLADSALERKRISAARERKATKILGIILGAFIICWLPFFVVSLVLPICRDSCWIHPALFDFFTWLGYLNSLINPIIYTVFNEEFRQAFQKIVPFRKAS
Sequence of S5.42A 5-HT1D receptor (P28221 whole entry S201A): as the sequence (P28221 whole entry) above, with S201A counted along it
Sequence of V45.52I 5-HT1B receptor (P28222 whole entry V201I): as the sequence (P28222 whole entry Y208F) above, with V201I, F208Y counted along it

| Ki (human 5-HT1D receptor; read-out: Affinity (pKi ± SD) 5-HT1D (converted)) [nM] | Ki (human 5-HT1F receptor; WT receptor, [^3H]5-HT competition, mean ± SD, read-out: Affinity (pKi ± SD) 5-HT1F (converted)) [nM] | Structure (SMILES) | Ki (Y5.38F 5-HT1B receptor) [nM] | Ki (V45.52I 5-HT1B receptor) [nM] | EC50 (S5.42A 5-HT1D receptor) [nM] | Ki (human 5-HT1D receptor; [1]) [nM] | higher affinity at 5-HT1D over 5-HT1A receptors (human 5-HT1D receptor) [fold] | Ki (human 5-HT1F receptor) [nM] | EC50 (V3.33I 5-HT1A receptor) [nM] | EC50 (N7.39T 5-HT1A receptor) [nM] | EC50 (Y5.38A 5-HT1A receptor) [nM] |
| --- | --- | --- | --- | --- | --- | --- | --- | --- | --- | --- | --- |
| – | – | CN(C)[C@H]1CCc2c(cccc2-c2ccccc2F)C1 [(S)-FPT] | 1.91 | 1.91 | 1.35 | 1.07 | 4 | > 10000 | – | – | – |
| – | – | CN(C)[C@H]1CCc2c(cccc2-c2cccc3ccccc23)C1 [(S)-NAP] | 5.62 | 41.7 | 10 | 0.832 | 70 | 5370 | 355 | 347 | 4680 |
| 13.5 | > 10000 | Fc1ccccc1-c1cccc2c1CC[C@H](N1CCCC1)C2 [(S)-PFPT] | 15.1 | 14.5 | 309 | – | – | – | 10.5 | 25.1 | 2.04 |
